Like-named read-outs stand apart in the source and are kept apart here.
Tests used:
Type in all cases: binding
[1] = target: T1, HeLa cell extract proteins (Homo sapiens, UniProt Q01628)
T1 construct: endogenous in cells; host or cells: HeLa cell extract

[2] = target: T2, HeLa cell extract proteins (Homo sapiens, UniProt P00505)
T2 construct: endogenous in cells; host or cells: HeLa cell extract
T2 sequence (P00505 30-430): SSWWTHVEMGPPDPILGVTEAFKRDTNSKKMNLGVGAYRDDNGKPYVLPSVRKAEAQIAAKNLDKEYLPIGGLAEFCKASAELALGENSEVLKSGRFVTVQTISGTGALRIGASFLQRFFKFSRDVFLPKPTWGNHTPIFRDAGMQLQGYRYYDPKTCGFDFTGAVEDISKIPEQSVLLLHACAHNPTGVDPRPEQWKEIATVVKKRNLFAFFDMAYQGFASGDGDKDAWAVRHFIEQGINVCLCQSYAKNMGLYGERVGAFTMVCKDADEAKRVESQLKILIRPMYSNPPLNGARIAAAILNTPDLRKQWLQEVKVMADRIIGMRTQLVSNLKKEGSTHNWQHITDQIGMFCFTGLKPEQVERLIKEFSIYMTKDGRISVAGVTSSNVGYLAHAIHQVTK

[3] = target: T3, HeLa cell extract proteins (Homo sapiens, UniProt P50991)
T3 construct: endogenous in cells; host or cells: HeLa cell extract
T3 sequence (P50991 1-539): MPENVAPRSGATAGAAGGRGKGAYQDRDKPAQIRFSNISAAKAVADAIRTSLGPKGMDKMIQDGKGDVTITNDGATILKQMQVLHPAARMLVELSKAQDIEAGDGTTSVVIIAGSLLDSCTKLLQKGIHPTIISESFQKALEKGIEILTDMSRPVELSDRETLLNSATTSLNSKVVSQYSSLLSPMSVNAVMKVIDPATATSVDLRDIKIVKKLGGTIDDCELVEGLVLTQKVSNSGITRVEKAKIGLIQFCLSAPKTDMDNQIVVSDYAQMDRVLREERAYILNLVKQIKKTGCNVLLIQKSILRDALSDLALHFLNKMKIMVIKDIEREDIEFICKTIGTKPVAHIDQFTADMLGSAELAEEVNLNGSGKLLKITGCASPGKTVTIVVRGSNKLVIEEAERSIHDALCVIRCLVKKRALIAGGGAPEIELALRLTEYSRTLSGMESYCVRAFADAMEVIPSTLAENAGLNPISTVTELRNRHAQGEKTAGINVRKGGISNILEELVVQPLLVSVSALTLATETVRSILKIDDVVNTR

[4] = target: T4, HeLa cell extract proteins (Homo sapiens, UniProt P57088)
T4 construct: endogenous in cells; host or cells: HeLa cell extract
T4 sequence (P57088 1-247): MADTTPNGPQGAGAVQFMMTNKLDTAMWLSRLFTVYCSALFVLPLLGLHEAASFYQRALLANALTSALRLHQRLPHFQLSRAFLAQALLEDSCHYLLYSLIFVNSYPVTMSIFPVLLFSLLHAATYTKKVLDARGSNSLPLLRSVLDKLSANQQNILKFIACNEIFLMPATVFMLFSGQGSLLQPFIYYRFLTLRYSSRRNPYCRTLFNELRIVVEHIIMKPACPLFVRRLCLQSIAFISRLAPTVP

[5] = target: T5, HeLa cell extract proteins (Homo sapiens, UniProt Q9UJX4)
T5 construct: endogenous in cells; host or cells: HeLa cell extract

[6] = target: T6, HeLa cell extract proteins (Homo sapiens, UniProt P54136)
T6 construct: endogenous in cells; host or cells: HeLa cell extract
T6 sequence (P54136 1-660): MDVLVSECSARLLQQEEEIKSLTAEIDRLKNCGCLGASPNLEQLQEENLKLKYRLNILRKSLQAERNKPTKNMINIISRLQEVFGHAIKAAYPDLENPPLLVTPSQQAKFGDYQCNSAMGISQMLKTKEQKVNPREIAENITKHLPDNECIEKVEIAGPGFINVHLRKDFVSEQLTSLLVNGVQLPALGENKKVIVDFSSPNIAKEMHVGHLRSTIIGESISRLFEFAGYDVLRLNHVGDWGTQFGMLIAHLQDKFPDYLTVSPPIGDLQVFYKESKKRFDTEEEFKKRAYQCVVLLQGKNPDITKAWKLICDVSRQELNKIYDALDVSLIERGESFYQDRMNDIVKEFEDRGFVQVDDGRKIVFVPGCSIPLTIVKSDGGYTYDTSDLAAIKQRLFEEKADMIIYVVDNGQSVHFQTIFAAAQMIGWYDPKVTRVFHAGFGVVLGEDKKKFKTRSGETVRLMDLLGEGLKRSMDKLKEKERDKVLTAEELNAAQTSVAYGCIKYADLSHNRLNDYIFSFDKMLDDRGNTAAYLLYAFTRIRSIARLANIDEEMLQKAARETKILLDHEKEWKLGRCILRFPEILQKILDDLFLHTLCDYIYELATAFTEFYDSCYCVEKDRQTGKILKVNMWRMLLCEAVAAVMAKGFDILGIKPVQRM

[7] = target: T7, HeLa cell extract proteins (Homo sapiens, UniProt Q15436)
T7 construct: endogenous in cells; host or cells: HeLa cell extract

[8] = target: T8, HeLa cell extract proteins (Homo sapiens, UniProt P49189)
T8 construct: endogenous in cells; host or cells: HeLa cell extract
T8 sequence (P49189 whole entry): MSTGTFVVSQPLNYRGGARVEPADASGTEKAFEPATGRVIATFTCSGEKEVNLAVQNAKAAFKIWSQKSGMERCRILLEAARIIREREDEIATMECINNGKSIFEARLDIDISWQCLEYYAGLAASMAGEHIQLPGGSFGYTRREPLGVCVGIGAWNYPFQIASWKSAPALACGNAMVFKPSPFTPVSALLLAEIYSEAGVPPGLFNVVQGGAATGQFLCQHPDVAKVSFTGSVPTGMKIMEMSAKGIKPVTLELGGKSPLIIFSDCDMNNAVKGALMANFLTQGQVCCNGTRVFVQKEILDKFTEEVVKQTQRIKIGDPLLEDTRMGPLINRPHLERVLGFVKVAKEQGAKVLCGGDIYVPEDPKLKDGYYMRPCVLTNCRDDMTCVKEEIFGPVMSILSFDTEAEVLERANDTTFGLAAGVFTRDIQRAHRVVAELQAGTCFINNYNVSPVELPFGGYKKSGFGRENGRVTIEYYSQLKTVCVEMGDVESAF

T5 sequence (Q9UJX4 whole entry): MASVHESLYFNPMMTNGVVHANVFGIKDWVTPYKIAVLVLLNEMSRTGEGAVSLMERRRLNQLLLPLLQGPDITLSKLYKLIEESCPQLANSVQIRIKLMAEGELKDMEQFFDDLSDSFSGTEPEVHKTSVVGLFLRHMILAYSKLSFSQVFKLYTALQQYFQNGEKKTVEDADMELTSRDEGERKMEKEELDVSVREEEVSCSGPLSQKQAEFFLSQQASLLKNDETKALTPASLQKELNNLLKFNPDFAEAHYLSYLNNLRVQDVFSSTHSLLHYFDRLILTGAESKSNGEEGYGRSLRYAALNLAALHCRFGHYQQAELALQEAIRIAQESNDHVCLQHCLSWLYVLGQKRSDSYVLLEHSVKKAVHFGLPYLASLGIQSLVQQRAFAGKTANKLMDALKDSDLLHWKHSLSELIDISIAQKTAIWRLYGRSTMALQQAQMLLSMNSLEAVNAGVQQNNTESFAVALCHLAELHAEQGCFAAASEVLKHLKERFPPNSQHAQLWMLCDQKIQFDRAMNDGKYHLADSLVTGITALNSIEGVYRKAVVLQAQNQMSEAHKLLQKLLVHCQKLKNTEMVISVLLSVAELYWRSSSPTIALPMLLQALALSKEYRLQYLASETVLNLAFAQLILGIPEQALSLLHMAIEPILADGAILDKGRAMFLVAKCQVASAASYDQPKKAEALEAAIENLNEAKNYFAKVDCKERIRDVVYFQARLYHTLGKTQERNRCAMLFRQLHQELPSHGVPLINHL
T7 sequence (Q15436 whole entry): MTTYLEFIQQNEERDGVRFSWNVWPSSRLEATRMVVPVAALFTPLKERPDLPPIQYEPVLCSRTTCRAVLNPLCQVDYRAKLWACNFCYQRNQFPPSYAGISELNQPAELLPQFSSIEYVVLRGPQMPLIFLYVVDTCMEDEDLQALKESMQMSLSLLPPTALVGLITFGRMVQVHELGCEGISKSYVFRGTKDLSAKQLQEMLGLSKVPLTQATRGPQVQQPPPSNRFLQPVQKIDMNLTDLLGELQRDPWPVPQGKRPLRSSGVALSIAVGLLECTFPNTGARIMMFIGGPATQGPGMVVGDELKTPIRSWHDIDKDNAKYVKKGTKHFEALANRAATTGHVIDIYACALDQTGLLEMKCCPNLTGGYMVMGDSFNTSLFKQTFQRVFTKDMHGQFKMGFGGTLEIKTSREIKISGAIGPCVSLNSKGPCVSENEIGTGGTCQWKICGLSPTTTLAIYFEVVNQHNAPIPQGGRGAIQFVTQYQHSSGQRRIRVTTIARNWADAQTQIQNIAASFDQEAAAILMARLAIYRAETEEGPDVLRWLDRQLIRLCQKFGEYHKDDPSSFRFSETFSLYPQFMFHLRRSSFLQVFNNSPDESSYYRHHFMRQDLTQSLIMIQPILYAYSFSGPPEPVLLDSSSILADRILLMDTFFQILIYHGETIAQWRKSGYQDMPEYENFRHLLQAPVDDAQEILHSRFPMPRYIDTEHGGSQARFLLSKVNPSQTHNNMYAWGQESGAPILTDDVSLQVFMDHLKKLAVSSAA
T1 sequence (Q01628 whole entry): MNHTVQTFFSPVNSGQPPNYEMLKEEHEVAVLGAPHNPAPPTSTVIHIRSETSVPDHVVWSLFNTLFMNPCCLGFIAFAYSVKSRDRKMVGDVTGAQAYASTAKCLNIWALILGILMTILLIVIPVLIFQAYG

## Nc1nc2c(c(=O)[nH]1)N(C=O)C(CNc1ccc(C(=O)N[C@@H](CCC(=O)O)C(=O)O)cc1)CN2 (some centres unmarked) [LEU, leucovorin]
[1]; HeLa, protein IFITM3
  fold changes relative to vehicle control: 1.21
[2]; HeLa, protein GOT2
  fold changes relative to vehicle control: 0.94
[3]; protein CCT4, HeLa
  fold changes relative to vehicle control: 1
[4]; HeLa, protein TMEM33
  fold changes relative to vehicle control: 0.88
[5]; HeLa, captured protein ANAPC5
  fold changes relative to vehicle control: 1.07
[6]; HeLa, captured protein RARS
  fold changes relative to vehicle control: 0.97
[7]; HeLa, protein SEC23A
  fold changes relative to vehicle control: 0.94
[8]; HeLa, captured protein ALDH9A1
  fold changes relative to vehicle control: 0.9

## Nc1nc2[nH]cc(CCc3ccc(C(=O)N[C@@H](CCC(=O)O)C(=O)O)cc3)c2c(=O)[nH]1 [PTX, pemetrexed]
[1]
  fold changes relative to vehicle control: 1.32
[2]
  fold changes relative to vehicle control: 0.99
[3]
  fold changes relative to vehicle control: 1.01
[4]
  fold changes relative to vehicle control: 0.96
[5]
  fold changes relative to vehicle control: 1.07
[6]
  fold changes relative to vehicle control: 0.93
[7]
  fold changes relative to vehicle control: 0.94
[8]
  fold changes relative to vehicle control: 1.02

## CCCCCCOc1ccc(Cc2cnc(N)nc2N)cc1 [compound 1]
[1]; captured protein IFITM3, HeLa
  fold changes relative to vehicle control: 1.07
[2]; protein GOT2, HeLa
  fold changes relative to vehicle control: 1.12
[3]; protein CCT4, HeLa
  fold changes relative to vehicle control: 1.25
[4]; captured protein TMEM33, HeLa
  fold changes relative to vehicle control: 0.86
[5]; captured protein ANAPC5, HeLa
  fold changes relative to vehicle control: 1.06
[6]; protein RARS, HeLa
  fold changes relative to vehicle control: 0.9
[7]; HeLa, protein SEC23A
  fold changes relative to vehicle control: 1.1
[8]; protein ALDH9A1, HeLa
  fold changes relative to vehicle control: 1

## CCCCCCOc1cccc(Cc2cnc(N)nc2N)c1 [compound 2]
[1]; captured protein IFITM3, HeLa
  fold changes relative to vehicle control: 0.65
[2]; protein GOT2, HeLa
  fold changes relative to vehicle control: 2.22
[3]; protein CCT4, HeLa
  fold changes relative to vehicle control: 1.73
[4]; captured protein TMEM33, HeLa
  fold changes relative to vehicle control: 0.93
[5]; captured protein ANAPC5, HeLa
  fold changes relative to vehicle control: 1
[6]; protein RARS, HeLa
  fold changes relative to vehicle control: 1.19
[7]; HeLa, protein SEC23A
  fold changes relative to vehicle control: 1.07
[8]; protein ALDH9A1, HeLa
  fold changes relative to vehicle control: 1.01

## Nc1nc2cccc(-c3ccccc3)c2n1Cc1ccc(Cl)c(Cl)c1 [compound 3]
[1]; captured protein IFITM3, HeLa
  fold changes relative to vehicle control: 0.9
[2]; protein GOT2, HeLa
  fold changes relative to vehicle control: 0.84
[3]; protein CCT4, HeLa
  fold changes relative to vehicle control: 1
[4]; captured protein TMEM33, HeLa
  fold changes relative to vehicle control: 1.14
[5]; captured protein ANAPC5, HeLa
  fold changes relative to vehicle control: 1.07
[6]; protein RARS, HeLa
  fold changes relative to vehicle control: 0.94
[7]; HeLa, protein SEC23A
  fold changes relative to vehicle control: 1.04
[8]; protein ALDH9A1, HeLa
  fold changes relative to vehicle control: 1.08

## NCCOCCOCC(=O)Nc1nc2ncc(CNc3ccc(C(=O)NC(CCC(=O)O)C(=O)O)cc3)nc2c(=O)[nH]1 (centres unmarked) [compound 6]
[1]; HeLa, protein IFITM3
  fold changes relative to vehicle control: 1.14
[2]; HeLa, protein GOT2
  fold changes relative to vehicle control: 1.16
[3]; protein CCT4, HeLa
  fold changes relative to vehicle control: 1.14
[4]; HeLa, protein TMEM33
  fold changes relative to vehicle control: 1
[5]; HeLa, captured protein ANAPC5
  fold changes relative to vehicle control: 1.05
[6]; HeLa, captured protein RARS
  fold changes relative to vehicle control: 0.99
[7]; HeLa, protein SEC23A
  fold changes relative to vehicle control: 0.89
[8]; HeLa, captured protein ALDH9A1
  fold changes relative to vehicle control: 0.92

## NCCCNc1ccc(C(=O)NC(CCC(=O)O)C(=O)O)cc1 (centres unmarked) [compound 7]
[1]; HeLa, protein IFITM3
  fold changes relative to vehicle control: 1.3
[2]; HeLa, protein GOT2
  fold changes relative to vehicle control: 0.94
[3]; protein CCT4, HeLa
  fold changes relative to vehicle control: 0.94
[4]; HeLa, protein TMEM33
  fold changes relative to vehicle control: 1.03
[5]; HeLa, captured protein ANAPC5
  fold changes relative to vehicle control: 1.1
[6]; HeLa, captured protein RARS
  fold changes relative to vehicle control: 0.96
[7]; HeLa, protein SEC23A
  fold changes relative to vehicle control: 1.1
[8]; HeLa, captured protein ALDH9A1
  fold changes relative to vehicle control: 0.98
